Reference: patent US12558345B2, “CHK1/2 inhibitors for use in the treatment of neuroblastomas and/or soft tissue sarcomas” (Eli Lilly and Company, priority 2015, dated 2026)
Counter-ions that a name gives are not always drawn. Like-named read-outs stand apart in the source and are kept apart here.

What was measured:
[1] = system: IMR-32 human NBM cancer cell xenograft; test: Xenograft Tumor Model IMR-32; assay type: in vivo, mouse; settings: IMR-32, NBM, comparator day 66, p-value <0.001
Method: (§1) The following protocol can be used to measure reductions in tumor volume in response to an active pharmaceutical ingredient. Expand human NBM cancer cells SH-SY5Y (ATCC, #CRL-2226) in culture, harvest, and inject 5×10^6 cells in 200 μL of 1:1 solution of HBSS and Matrigel® subcutaneously into the right rear flank of female CD-1 nu/nu mice (20-24 g, Charles River Laboratories). Expand human NBM cancer cells KELLY (Sigma-#92110411) in culture, harvest, and inject 5×10^6 cells in 200 μL of 1:1 solution of HBSS and Matrigel® subcutaneously into the right rear flank of female CB-17 SCID mice (20-24 g, Charles River Laboratories). Expand human NBM cancer cells IMR-32 (ATCC, #CCL-127) in culture, harvest, and inject 5×10^6 cells in 200 μL of 1:1 solution of HBSS and Matrigel® subcutaneously into the right rear flank of female CB-17 SCID mice (20-24 g, Charles River Laboratories).
(§2) For all “ST” models (encompassing RMS and LMS), patient-derived xenografts are established from viable human tumor tissue and are serially passaged in animals a limited number of times to maintain tumor heterogeneity. […] Tumor response is determined by tumor volume measurement performed twice per week during the course of treatment.

[2] = system: pediatric sarcoma in vivo mouse models; test: Pediatric tumor / pediatric sarcoma in vivo mouse models (panel)
Method: (§3) The efficacy of 5-(5-(2-(3-aminopropoxy)-6-methoxyphenyl)-1H-pyrazol-3-ylamino)pyrazine-2-carbonitrile methanesulfonic acid monohydrate is measurable in vivo in mouse models of neuroblastomas and human pediatric and adult sarcomas. 5-(5-(2-(3-Aminopropoxy)-6-methoxyphenyl)-1H-pyrazol-3-ylamino)pyrazine-2-carbonitrile methanesulfonic acid monohydrate (10 mg/kg) can be administered subcutaneously to nude mice bearing either cell-derived xenografts (CDX) or patient-derived xenografts (PDX) of human rhabdomyosarcoma, desmoplastic small round cell tumor (DSRCT), osteosarcoma, and Ewing's sarcoma using a 3 day on, 4 day off b.i.d. dosing schedule. Tumor volume and body weight can be measured two times per week. Tumor-specific parameters can be evaluated by immumohistochemistry.
For all “CTG” models (encompassing human RMS, DSRCT, EWS, OS and LMS patient-derived xenograft models), female NCr nude spontaneous mutant mice (5-8 weeks old, Taconic) are implanted unilaterally in the flank region with tumor fragments harvested from donor animals, each implanted from a specific passage lot.
For all “ST” models (encompassing RMS and LMS), patient-derived xenografts are established from viable human tumor tissue and are serially passaged in animals a limited number of times to maintain tumor heterogeneity. In subcutaneous models, athymic nude mice (Crl:NU(NCr)-Foxn1nu) or CB-17 SCID mice (CRL-CB17/Icr-Prkdcscid/IcrIcoCrl) are injected or implanted unilaterally into the flank with tumor fragments harvested from host animals, each implanted from a specific passage lot. For all studies, measure tumor growth and body weight twice per week beginning on the seventh day after implantation. When tumor size reaches 150-300 mm^3, randomize animals and group into groups of 4-7 animals. […] Tumor response is determined by tumor volume measurement performed twice per week during the course of treatment.

[3] = system: SH-SY5Y human NBM cancer cell xenograft; test: Xenograft Tumor Model SH-SY5Y; assay type: in vivo, mouse; settings: comparator day 28, 8 mg/kg dose, p-value <0.001
Method: as §1, §2

[4] = system: SJCRH-30 human RMS cancer cell xenograft; test: Xenograft Tumor Model SJCRH-30; assay type: in vivo, mouse
Method: as §3
Expand human RMS cancer cells SJCRH-30 (St. Jude Children's Research Hospital) in culture, harvest, and inject 5×10^6 cells in 200 μL of HBSS subcutaneously into the right rear flank of female athymic nude mice (20-22 g, Harlan Laboratories). Expand human rhabdomyosarcoma cancer cells RD (ATCC, #CCL-136) in culture, harvest, and inject, 5×10^6 cells in 200 μL of HBSS subcutaneously into the right rear flank of female athymic nude mice (20-22 g, Harlan Laboratories).
For all “ST” models (encompassing RMS and LMS), patient-derived xenografts are established from viable human tumor tissue and are serially passaged in animals a limited number of times to maintain tumor heterogeneity. In subcutaneous models, athymic nude mice (Crl:NU(NCr)-Foxn1nu) or CB-17 SCID mice (CRL-CB17/Icr-Prkdcscid/IcrIcoCrl) are injected or implanted unilaterally into the flank with tumor fragments harvested from host animals, each implanted from a specific passage lot. For all studies, measure tumor growth and body weight twice per week beginning on the seventh day after implantation. When tumor size reaches 150-300 mm^3, randomize animals and group into groups of 4-7 animals. Prepare test compound in an appropriate vehicle (e.g. vehicle can be 20% Captisol® in sterile water) and administer subcutaneously for three consecutive days followed by a four day dosing holiday and repeat for a minimum of four weeks. Tumor response is determined by tumor volume measurement performed twice per week during the course of treatment.

[5] = system: SJCRH-30 RMS xenograft; assay type: in vivo; settings: for % T/C: SJCRH-30, RMS
Method: The vehicle used in this study is 20% Captisol® in sterile water and is administered subcutaneously for three consecutive days followed by a four day dosing holiday and repeated for a minimum of four weeks. […] The treatment period lasts 4 weeks.

[6] = system: Calu-6 lung tumor xenograft; test: Human Tumor Xenograft Models, with gemcitabine: Calu-6; assay type: in vivo, mouse
Method: The ability of CHK1 inhibitors to effect tumor killing can be determined in vivo using the Calu-6 lung and HT-29 colon tumor xenograft efficacy models. Calu-6 lung cancer cells (ATCC) are cultured in growth media (MEM w/ Earle's salts (Invitrogen) with L-glutamine (Gibco™) supplemented with 10% (v/v) heat inactivated FBS (Gibco™), 1×MEM non-essential amino acids (Gibco™), 1×sodium pyruvate (Gibco™)) and HT-29 colon cancer cells (ATCC) are cultured in growth media, (McCoy's 5A medium (Gibco™) supplemented with 10% FBS (Gibco™)) and expanded. Cells are harvested and washed twice with phosphate buffered saline and 5×10^6 cells (HT-29) or 1×10^6 cells (Calu-6) in growth media (without serum) are mixed with equal volume of BD Matrigel™ matrix (BD Bioscience, Franklin, NJ), then injected subcutaneously into the flank of nude mice (CD-1 nu/nu, from Charles River Labs, Wilmington, MA). At about day 16 after implant (150-200 mm^3), gemcitabine is formulated fresh in saline daily and administered to animals by intraperitoneal route at 60 mg/kg dose. […] Tumor response is determined by tumor volume measurement performed twice a week during the course of treatment. Tumor growth inhibition (TGI) is calculated as the percent reduction in mean tumor size of a compound treated group from the mean tumor size of the vehicle-treated control group.

[7] = results ranging from stable disease to complete response

SMILES	% Regression [1] [%]	pediatric tumor models with strong single agent activity ([2]; ranging from stable disease to complete regression, 10 mg/kg SC, 3 day on, 4 day off b.i.d.)	pediatric sarcoma in vivo mouse models in which effective as a single agent (models) [2, 7]	pediatric sarcoma in vivo mouse models in which effective as a single agent (percent) [2, 7] [%]	% Regression [3] [%]	% Regression ([4]; SJCRH-30, RMS, comparator day 38, p-value <0.001) [%]	course of the regression upon withdrawal of the drug ([4]; SJCRH-30 aRMS model)	tumor response during treatment ([4]; SJCRH-30 aRMS model)	response of subsequent regrowth to further treatment ([4]; SJCRH-30 aRMS model, 10 mg/kg)	% T/C ([5]; comparator day 46) [%]	% T/C ([5]; comparator day 56) [%]	tumor response as a single agent ([5]; SJCRH-30, SC three days on, four day holiday, 4 weeks, tumor regrowth occurs from day 38)	effect on acquired resistance in SJCRH30 xenografts ([5]; combination with doxorubicin, ifosfamide, or irinotecan)	increase in tumor growth inhibition over gemcitabine alone ([6]; Calu-6, combination with gemcitabine)	anti-tumor activity ([6]; Calu-6, dosed alone and in combination with gemcitabine 60 mg/kg ip, compound iv +24 hours, Q3Dx4)
COc1cccc(OCCCN)c1-c1cc(Nc2cnc(C#N)cn2)n[nH]1 [Example 5, 5-(5-(2-(3-Aminopropoxy)-6-methoxyphenyl)-1H-pyrazol-3-ylamino)pyrazine-2-carbonitrile methanesulfonic acid monohydrate]	−72	7/13	7/17	~41	−21	−78	immediately reversed	complete regression	resistant to further treatment	0.1	58	initial complete response until day 38	appears to circumvent the acquired resistance		
COc1cccc(OCCCN)c1-c1cc(Nc2cnc(C#N)cn2)n[nH]1 [Example 2, 5-(5-(2-(3-Aminopropoxy)-6-methoxyphenyl)-1H-pyrazol-3-ylamino)pyrazine-2-carbonitrile dihydrogen chloride salt]														up to a six-fold increase	excellent dose dependent anti-tumor activity
